This note sets out measurements from patent US20170114021A1, “HALOGEN-SUBSTITUTED COMPOUNDS” (priority 2014, published 2017).

Series [1] is described as follows: log P by HPLC on reversed-phase column (C18), EEC Directive 79/831 Annex V.A8. In kind it is physicochemical. As for the experimental part: ^a) Unless indicated otherwise, the following method was used to determine the log P values and masses: The determination of the given log P values was carried out in accordance with EEC Directive 79/831 Annex V.A8 by HPLC (High Performance Liquid Chromatography) on a reversed-phase column (C18). Agilent 1100 LC system; 50*4.6 Zorbax Eclipse Plus C18 1.8 micron; mobile phase A: acetonitrile (0.1% formic acid); mobile phase B: water (0.09% formic acid); linear gradient from 10% acetonitrile to 95% acetonitrile in 4.25 min, then 95% acetonitrile for a further 1.25 min; oven temperature 55° C.; flow rate: 2.0 ml/min. Mass detection is effected by means of an Agilend MSD system.

The subject of series [2] is Phaedon cochleariae. Put plainly: Phaedon cochleariae spray test (PHAECO). In kind it is in vivo. The note with it: Chinese cabbage leaf discs, after 7 days. As for the experimental part: Phaedon cochleariae—Spray Test (PHAECO) Solvent: 78.0 parts by weight of acetone • • 1.5 parts by weight of dimethylformamide Emulsifier: alkylaryl polyglycol ether
(§1) To produce a suitable preparation of active compound, 1 part by weight of active compound is dissolved using the specified parts by weight of solvent and made up with water containing an emulsifier concentration of 1000 ppm until the desired concentration is attained. To produce further test concentrations, the preparation is diluted with emulsifier-containing water.
After 7 days, efficacy in % is determined. 100% means that all the beetle larvae have been killed; 0% means that no beetle larvae have been killed.

Series [3] has as its system Spodoptera frugiperda. The series is described as follows: Spodoptera frugiperda spray test (SPODFR). The note with it: application rate 100 g/ha; maize leaf discs; after 7 days. The class given is in vivo. As for the experimental part:
Spodoptera frugiperda—Spray Test (SPODFR)
Solvent: 78.0 parts by weight of acetone • • 1.5 parts by weight of dimethylformamide Emulsifier: alkylaryl polyglycol ether
as §1
Leaf discs of maize (Zea mays) are sprayed with an active compound preparation of the desired concentration and, after drying, populated with caterpillars of the armyworm (Spodoptera frugiperda).
After 7 days, efficacy in % is determined. 100% means that all the caterpillars have been killed; 0% means that no caterpillars have been killed.

Series [4] concerns Tetranychus urticae. The series is described as follows: Tetranychus urticae spray test, OP-resistant (TETRUR). The class given is in vivo. The note with it: application rate 100 g/ha; bean leaf discs; after 6 days. As for the experimental part: Tetranychus urticae—Spray Test, OP-Resistant (TETRUR) Solvent: 78.0 parts by weight of acetone • • 1.5 parts by weight of dimethylformamide Emulsifier: alkylaryl polyglycol ether
as §1
Discs of bean leaves (Phaseolus vulgaris) infested by all stages of the greenhouse red spider mite (Tetranychus urticae) are sprayed with an active ingredient formulation of the desired concentration.
After 6 days, efficacy in % is determined. 100% means that all the spider mites have been killed; 0% means that no spider mites have been killed.

For series [5], the system named is Lucilia cuprina. The series is described as follows: Lucilia cuprina test (LUCICU). In kind it is in vivo. The note with it: application rate 100 ppm; L1 larvae; after 2 days. As for the experimental part:
Lucilia cuprina-Test (LUCICU) Solvent: dimethyl sulphoxide
(§2) To produce a suitable preparation of active compound, 10 mg of active compound are mixed with 0.5 ml of dimethyl sulphoxide, and the concentrate is diluted with water to the desired concentration.
About 20 L1 larvae of the Australian sheep blowfly (Lucilia cuprina) are transferred into a test vessel containing minced horsemeat and the active compound preparation of the desired concentration.
After 2 days, the kill in % is determined. 100% means that all the larvae have been killed; 0% means that no larvae have been killed.

The subject of series [6] is Ctenocephalides felis. The series is described as follows: Ctenocephalides felis oral test (CTECFE). In kind it is in vivo. The note with it: application rate 100 ppm in citrated cattle blood; after 2 days. As for the experimental part:
Ctenocephalides felis—Oral Test (CTECFE) Solvent: dimethyl sulphoxide
To produce a suitable preparation of active compound, 10 mg of active compound are mixed with 0.5 ml of dimethyl sulphoxide. Dilution with citrated cattle blood gives the desired concentration.
About 20 unfed adult cat fleas (Ctenocephalides felis) are placed into a chamber which is closed at the top and bottom with gauze. A metal cylinder whose bottom end is closed with parafilm is placed onto the chamber. The cylinder contains the blood/active compound preparation, which can be imbibed by the fleas through the parafilm membrane.
After 2 days, the kill in % is determined. 100% means that all of the fleas have been killed; 0% means that none of the fleas have been killed.

Series [7] relates to Musca domestica. Put plainly: Musca domestica test (MUSCDO). In kind it is in vivo. The note with it: application rate 100 ppm; adult houseflies; after 2 days. As for the experimental part: Musca domestica-Test (MUSCDO) Solvent: dimethyl sulphoxide
as §2
Vessels containing a sponge treated with sugar solution and the active compound preparation of the desired concentration are populated with 10 adult houseflies (Musca domestica).
After 2 days, the kill in % is determined. 100% means that all of the flies have been killed; 0% means that none of the flies have been killed.

The subject of series [8] is Boophilus microplus. Put plainly: Boophilus microplus injection test (BOOPMI Inj). The note with it: application rate 20 μg/animal; injection into abdomen. In kind it is in vivo. As for the experimental part: Boophilus microplus—Injection Test (BOOPMI Inj) Solvent: dimethyl sulphoxide
To produce a suitable preparation of active compound, 10 mg of active compound are mixed with 0.5 ml of solvent and the concentrate is diluted with solvent to the desired concentration.
1 μl of the active compound solution is injected into the abdomen of 5 engorged adult female cattle ticks (Boophilus microplus). The animals are transferred into dishes and kept in a climate-controlled room.
The activity is assessed after the desired time by laying of fertile eggs. Eggs which are not visibly fertile are stored in a climate-controlled cabinet until the larvae hatch after about 42 days. An efficacy of 100% means that none of the ticks has laid any fertile eggs; 0% means that all the eggs are fertile.

[9] abbreviates: reversed-phase C18 HPLC column, HPLC, C18, acetonitrile/water with formic acid gradient, read-out: log P.

Read-outs that look alike come from different tables or passages of the source.

Turning to `Cn1cc(C(F)(F)F)c(C(F)(F)C(F)(F)F)n1` [1-methyl-3-(1,1,2,2,2-pentafluoroethyl)-4-(trifluoromethyl)pyrazole], in series [1], the chromatographic logP was determined as 3.23.
In the case of `Cn1nc(C(F)(F)C(F)(F)F)c(C(F)(F)F)c1-c1ccn(-c2ccc(Cl)c(C(=O)NC3CC3)c2)n1` [Id-1, 2-chloro-N-cyclopropyl-5-[2′-methyl-5′-(pentafluoroethyl)-4′-(trifluoromethyl)-1H,2′H-3,3′-bipyrazol-1-yl]benzamide], the efficacy in series [2] (application rate 100 g/ha) and in series [3] was 100% throughout. The chromatographic logP in series [1] (setting [9]) is 4.05.
Consider `Cn1nc(C(F)(F)C(F)(F)F)c(C(F)(F)F)c1-c1nn[nH]n1` [5-[1-methyl-3-(pentafluoroethyl)-4-(trifluoromethyl)-1H-pyrazol-5-yl]-2H-tetrazole], for which, in series [1] (setting [9]), the chromatographic logP was found to be 2.11.
Same read-out and setting: the result for `C#Cc1c(C(F)(F)F)c(C(F)(F)C(F)(F)F)nn1C` [5-ethynyl-1-methyl-3-(pentafluoroethyl)-4-(trifluoromethyl)-1H-pyrazole] reads 3.74; that for `O=C(NC1CC1)c1cc(B(O)O)ccc1Cl` [[4-chloro-3-(cyclopropylcarbamoyl)phenyl]boronic acid], 0.96.
`Cn1nc(C(F)(F)C(F)(F)F)c(C(F)(F)F)c1-c1c[nH]nn1` [4-[1-methyl-3-(pentafluoroethyl)-4-(trifluoromethyl)-1H-pyrazol-5-yl]-1H-1,2,3-triazole]: the chromatographic logP in series [1] (setting [9]) came to 2.78.
In the case of `Cn1nc(C(F)(F)C(F)(F)F)c(C(F)(F)F)c1-c1nnn(-c2ccc(Cl)c(C(=O)NC3CC3)c2)n1` [Ih-1, 2-chloro-N-cyclopropyl-5-{5-[1-methyl-3-(pentafluoroethyl)-4-(trifluoromethyl)-1H-pyrazol-5-yl]-2H-tetrazol-2-yl}benzamide], the efficacy stood at 100% in series [2] (application rate 20 g/ha), 90% in series [4] and 100% in series [3]. Further, the chromatographic logP in series [1] (setting [9]) came to 4.06.
Take `[N-]=[N+]=Nc1ccc(Cl)c(C(=O)NC2CC2)c1` [5-azido-2-chloro-N-cyclopropylbenzamide]: in series [1] (setting [9]), the chromatographic logP came to 1.8.
Same read-out and setting: in the case of `CON(C)C(=O)c1c(C(F)(F)F)c(C(F)(F)C(F)(F)F)nn1C` [N-methoxy-N,1-dimethyl-3-(pentafluoroethyl)-4-(trifluoromethyl)-1H-pyrazole-5-carboxamide] it was 3.22; in that of `O=C(NC1CC1)c1cc(-n2cc(Br)cn2)ccc1Cl` [5-(4-bromopyrazol-1-yl)-2-chloro-N-cyclopropylbenzamide], 2.36.
For the compound `O=C(NC1CC1)c1cc(I)ccc1Cl` [2-chloro-N-cyclopropyl-5-iodobenzamide], the chromatographic logP in series [1] (setting [9]) came out at 2.13.
Consider `Cn1nc(C(F)(F)C(F)(F)F)c(C(F)(F)F)c1B1OC(C)(C)C(C)(C)O1` [1-methyl-3-(1,1,2,2,2-pentafluoroethyl)-5-(4,4,5,5-tetramethyl-1,3,2-dioxaborolan-2-yl)-4-(trifluoromethyl)pyrazole], for which, in series [1] (setting [9]), the chromatographic logP was 5.05.
Regarding `Cn1nc(C(F)(F)C(F)(F)F)c(C(F)(F)F)c1-c1cnn(-c2ccc(Cl)c(C(=O)NC3CC3)c2)n1` [If-1, 2-chloro-N-cyclopropyl-5-{4-[1-methyl-3-(pentafluoroethyl)-4-(trifluoromethyl)-1H-pyrazol-5-yl]-2H-1,2,3-triazol-2-yl}benzamide], the “efficacy (kill)” value in series [5], in series [6] and in series [7] was 100% each time. For the same compound, the efficacy in series [2] (application rate 100 g/ha), in series [4] and in series [3] was 100% each time. The chromatographic logP in series [1] (setting [9]) worked out at 4.17. Further, the “efficacy (laying of fertile eggs)” value in series [8] turned out to be 100%.
Regarding `CC(=O)c1c(C(F)(F)F)c(C(F)(F)C(F)(F)F)nn1C` [1-[1-methyl-3-(pentafluoroethyl)-4-(trifluoromethyl)-1H-pyrazol-5-yl]ethanone], in series [1] (setting [9]), the chromatographic logP was 3.61.
In the case of `CN(C)/C=C/C(=O)c1c(C(F)(F)F)c(C(F)(F)C(F)(F)F)nn1C` [(2E)-3-(dimethylamino)-1-[1-methyl-3-(pentafluoroethyl)-4-(trifluoromethyl)-1H-pyrazol-5-yl]prop-2-en-1-one], the chromatographic logP in series [1] (setting [9]) came out at 2.77.
For `Cn1nc(C(F)(F)C(F)(F)F)c(C(F)(F)F)c1-c1cc[nH]n1` [2′-methyl-5′-(pentafluoroethyl)-4′-(trifluoromethyl)-1H,2′H-3,3′-bipyrazole], the chromatographic logP in series [1] (setting [9]) was 3.03.
